Measured values taken from patent publication US11180462B2, “Microbiocidal oxadiazole derivatives” (SYNGENTA PARTICIPATIONS AG, priority 2015, dated 2021).

Test system: Glomerella lagenarium (Colletotrichum lagenarium)
Assay: Fungicidal activity against Glomerella lagenarium (Colletotrichum lagenarium) liquid culture / cucumber / preventative (anthracnose)
Format: cell-based
Conditions: Colletotrichum orbiculare; 20 ppm in the applied formulation; liquid culture (PDB), growth inhibition measured photometrically after 3 to 4 days; compared to untreated control; read-out: disease control
In short: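 Percent activity against the untreated check was derived from photometric growth measurements made 2 to 7 days after conidia in potato dextrose broth were combined with compound at 20 ppm. Cultures were kept dark at 24 °C and 96% humidity.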

Structure (SMILES) | inhibition of growth at 20 ppm [%]
COC(C)C(=O)N(Cc1ccc(-c2noc(C(F)(F)F)n2)cc1)OCc1ccc(Cl)cc1 (stereo not shown) [Compound 1.559, N-[(4-chlorophenyl)-methoxy]-2-methoxy-N-[[4-[5-(trifluoromethyl)-1,2,4-oxadiazol-3-yl]phenyl)methyl]-propanamide] | ≥ 80
COCCCC(=O)N(Cc1ccc(-c2noc(C(F)(F)F)n2)cc1)OCc1ccc(Cl)cc1 [Compound 1.555, N-[(4-chlorophenyl)-methoxy]-4-methoxy-N-[[4-[5-(trifluoromethyl)-1,2,4-oxadiazol-3-yl]phenyl]methyl]-butanamide] | ≥ 80
CC1(C(=O)N(Cc2ccc(-c3noc(C(F)(F)F)n3)cc2)OCC=C(Cl)Cl)COC1 [Compound 1.544, N-(3,3-dichloroallyloxy)-3-methyl-N-[[4-[5-(trifluoromethyl)-1,2,4-oxadiazol-3-yl]phenyl]methyl]-oxetane-3-carboxamide] | ≥ 80
C=C(C)C(=O)N(Cc1ccc(-c2noc(C(F)(F)F)n2)cc1)OCCC [Compound 1.304, 2-methyl-N-propoxy-N-[[4-[5-(trifluoromethyl)-1,2,4-oxadiazol-3-yl]phenyl]methyl]-prop-2-enamide] | ≥ 80
CON(Cc1ccc(-c2noc(C(F)(F)F)n2)cc1)C(=O)Cc1ccc(C(F)(F)F)cc1 [Compound 1.68, N-methoxy-N-[[4-[5-(trifluoromethyl)-1,2,4-oxadiazol-3-yl]phenyl]methyl]-2-[4-(trifluoromethyl)-phenyl]acetamide] | ≥ 80
CCCCON(Cc1ccc(-c2noc(C(F)(F)F)n2)cc1)C(=O)CC1CC1 [Compound 1.650, N-butoxy-2-cydopropyl-N-[[4-[5-(trifluoromethyl)-1,2,4-oxadiazol-3-yl]phenyl]methyl]-acetamide] | ≥ 80
CCC1(C(=O)N(Cc2ccc(-c3noc(C(F)(F)F)n3)cc2)OC)C(C)C1(Cl)Cl (stereo not shown) [Compound 1.61, 2,2-dichloro-1-ethyl-N-methoxy-3-methyl-N-[[4-[5-(trifluoromethyl)-1,2,4-oxadiazol-3-yl]phenyl]methyl]-cyclopropane-carboxamide] | ≥ 80
CCCON(Cc1ccc(-c2noc(C(F)(F)F)n2)cc1)C(=O)C1(C)CC1 [Compound 1.302, 1-methyl-N-propoxy-N-[[4-[5-(trifluoromethyl)-1,2,4-oxadiazol-3-yl]phenyl]methyl]-cyclopropane-carboxamide] | ≥ 80
O=C(CC1CC1)N(Cc1ccc(-c2noc(C(F)(F)F)n2)cc1)CC1CC1 [Compound 1.211, 2-cyclopropyl-N-(cyclopropylmethyl)-N-[[4-[5-(trifluoromethyl)-1,2,4-oxadiazol-3-yl]phenyl]methyl]-acetamide] | ≥ 80
CCC(CC(=O)N(Cc1ccc(-c2noc(C(F)(F)F)n2)cc1)C1CC1)C(F)(F)F (stereo not shown) [Compound 1.148, N-cyclopropyl-3-(trifluoromethyl)-N-[[4-[5-(trifluoromethyl)-1,2,4-oxadiazol-3-yl]phenyl]methyl]-pentanamide] | ≥ 80
CCCON(Cc1ccc(-c2noc(C(F)(F)F)n2)cc1)C(=O)C1CCCC1 [Compound 1.290, N-propoxy-N-[[4-[5-(trifluoromethyl)-1,2,4-oxadiazol-3-yl]phenyl]methyl]-cyclopentane-carboxamide] | ≥ 80
CCC(C)N(Cc1ccc(-c2noc(C(F)(F)F)n2)cc1)C(=O)C1CCC1 (stereo not shown) [Compound 1.381, N-sec-butyl-N-[[4-[5-(trifluoromethyl)-1,2,4-oxadiazol-3-yl]phenyl]methyl]-cyclobutane-carboxamide] | ≥ 80
CCCON(Cc1ccc(-c2noc(C(F)(F)F)n2)cc1)C(=O)CC(C)C [Compound 1.294, 3-methyl-N-propoxy-N-[[4-[5-(trifluoromethyl)-1,2,4-oxadiazol-3-yl]phenyl]methyl]-butanamide] | ≥ 80
COCC(=O)N(Cc1ccc(-c2noc(C(F)(F)F)n2)cc1)OCC=C(Cl)Cl [Compound 1.535, N-(3,3-dichloroallyloxy)-2-methoxy-N-[[4-[5-(trifluoromethyl)-1,2,4-oxadiazol-3-yl]phenyl]methyl]-acetamide] | ≥ 80
CCCCC(=O)N(OC)C(C)c1ccc(-c2noc(C(F)(F)F)n2)cc1 (stereo not shown) [Compound 1.281, N-methoxy-N-[1-[4-[5-(trifiuoromethyl)-1,2,4-oxadiazol-3-yl]phenyl]ethyl]-pentanamide] | ≥ 80
CON(C(=O)C1(C)CC1)C(C)c1ccc(-c2noc(C(F)(F)F)n2)cc1 (stereo not shown) [Compound 1.268, N-methoxy-1-methyl-N-[1-[4-[5-(trifluoromethyl)-1,2,4-oxadiazol-3-yl]phenyl]ethyl]-cyclopropane-carboxamide] | ≥ 80
O=C(C1=CCCC1)N(Cc1ccc(-c2noc(C(F)(F)F)n2)cc1)CC1CCCO1 (stereo not shown) [Compound 1.420, N-(tetrahydrofuran-2-ylmethyl)-N-[[4-[5-(trifluoromethyl)-1,2,4-oxadiazol-3-yl]phenyl]methyl]-cyclopentene-1-carboxamide] | ≥ 80
CCC(=O)N(Cc1ccc(-c2noc(C(F)(F)F)n2)cc1)OCC=C(Cl)Cl [Compound 1.534, N-(3,3-dichloroallyloxy)-N-[[4-[5-(trifluoromethyl)-1,2,4-oxadiazol-3-yl]phenyl]methyl]-propanamide] | ≥ 80
CON(Cc1ccc(-c2noc(C(F)(F)F)n2)cc1)C(=O)c1ccc(Cl)cc1Cl [Compound 1.9, 2,4-dichloro-N-methoxy-N-[[4-[5-(trifluoromethyl)-1,2,4-oxadiazol-3-yl]phenyl]methyl]-benzamide] | ≥ 80
CCCC(=O)N(Cc1ccc(-c2noc(C(F)(F)F)n2)cc1)OCc1ccc(Cl)cc1 [Compound 1.554, N-[(4-chlorophenyl)-methoxy]-N-[[4-[5-(trifluoromethyl)-1,2,4-oxadiazol-3-yl]phenyl]methyl]-butanamide] | ≥ 80
O=C(CCl)N(Cc1ccc(-c2noc(C(F)(F)F)n2)cc1)OCC=C(Cl)Cl [Compound 1.538, 2-chloro-N-(3,3-dichloroallyloxy)-N-[[4-[5-(trifluoromethyl)-1,2,4-oxadiazol-3-yl]phenyl]methyl]-acetamide] | ≥ 80
O=C(CCC(F)(F)F)N(Cc1ccc(-c2noc(C(F)(F)F)n2)cc1)CC1CC1 [Compound 1.213, N-(cyclopropylmethyl)-4,4,4-trifluoro-N-[[4-[5-(trifluoromethyl)-1,2,4-oxadiazol-3-yl]phenyl]methyl]-butanamide] | ≥ 80
O=C(C1OCCO1)N(Cc1ccc(-c2noc(C(F)(F)F)n2)cc1)OCC=C(Cl)Cl [Compound 1.547] | ≥ 80
CCCCC(=O)N(Cc1ccc(-c2noc(C(F)(F)F)n2)cc1)C(C)CC (stereo not shown) [Compound 1.409, N-sec-butyl-N-[[4-[5-(trifluoromethyl)-1,2,4-oxadiazol-3-yl]phenyl]methyl]-pentanamide] | ≥ 80
CCCON(Cc1ccc(-c2noc(C(F)(F)F)n2)cc1)C(=O)C1=CCCC1 [Compound 1.291, N-propoxy-N-[[4-[5-(trifiuoromethyl)-1,2,4-oxadiazol-3-yl]phenyl]methyl]-cyclopentene-1-carboxamide] | ≥ 80
